Measurements: patent publication US20070066682A1, “Arylalkylamine vanadium (V) salts for the treatment and/or prevention of Diabetes mellitus” (priority 2005, published 2007)
pEC50: −log10 of the molar value. Entries after “also recorded” stand apart in the source; their conditions may differ.

Columns and labels:
[1] = test system: insulin receptor; test: Tyrosine phosphorylation of insulin receptor in isolated rat adipocytes; type: cell-based; conditions: 25 μM
Protocol: (§1) Isolated fat cells were disrupted for total membrane preparation by hypo-osmotic lysis in a 20 mM HES buffer and an antiprotease and antiphosphatase cocktail as reported by Abella et al. (2003, Diabetes 52: 1004-1013). Protein concentrations were determined by the Bradford method (Bradford, 1976, Anal. Biochem. 72: 248-254) with gamma-globulin as protein concentration standard. Immunoprecipitation and immunoblot assays were performed as previously described by Abella et al. (2004, Id.) with the use of a monoclonal antiphosphotyrosine antibody for the immunoprecipitation and an anti-insulin receptor antibody for immunoblotting, respectively. SDS-polyacrylamide gel electrophoresis was performed on membrane proteins following conventional procedures. Proteins were transferred to Immobilon and immunoblotting was performed as reported by Castello et al. (1994, J. Biol. Chem. 269: 5905-5912).
The mechanism of action of B6V10 was investigated in isolated rat adipocytes. Adipose cells from Wistar rats were incubated for different times in the presence of 25 μM hexaquis(benzylammonium) decavanadate (B6V10). […] Subsequently, 2-deoxyglucose uptake (results shown in FIG. 7A), tyrosine phosphorylation of insulin receptor (FIG. 7B), phospho-Thr^308-protein kinase B (FIG. 7C) and phospho-Ser^473-protein kinase B (FIG. 7D) was measured. […]

[2] = test system: adipocyte lipolysis; test: Adipocyte lipolysis; type: cell-based
[3] = test system: diabetic rats; test: Plasma free fatty acids, triglycerides and cholesterol of diabetic rats; type: in vivo, rat
Protocol: (§2) In glucose tolerance tests and in chronic treatments, circulating glucose concentrations were determined by a rapid glucose analyser (Accutrend® Sensor Comfort, Roche, Basel. Switzerland). Plasma insulin (IRI) concentration was determined by ELISA method using a kit obtained from Crystal Chem Inc. (Downers Grove, Ill.). Plasma triglycerides (Biosystems, Barcelona, Spain) and NEFAS (Wako Chemicals, Neuss, Germany) were determined with standard […] methods.

[4] = test system: protein kinase B; test: Protein kinase B phosphorylation in isolated rat adipocytes; type: cell-based
Protocol: as §1
The mechanism of action of B6V10 was investigated in isolated rat adipocytes. Adipose cells from Wistar rats were incubated for different times in the presence of 25 μM hexaquis(benzylammonium) decavanadate (B6V10). Cells were also incubated in the presence of insulin (100 nM, 45 min), decavanadate (25 μM, 45 min) or semicarbazide (1 mM, 45 min). Subsequently, 2-deoxyglucose uptake (results shown in FIG. 7A), tyrosine phosphorylation of insulin receptor (FIG. 7B), phospho-Thr^308-protein kinase B (FIG. 7C) and phospho-Ser^473-protein kinase B (FIG. 7D) was measured. […] The phosphorylation of protein kinase B induced by B6V10 was parallel to activation of glucose transport (FIG. 7C and 7D).
(§3) The effects of incubation with semicarbazide or phosphatidylinositol 3-kinase inhibitors were also investigated. Adipose cells were incubated with B6V10 (25 μM, 45 min) in the absence or presence of wortmannin (2 μM, 45 min), LY294002 (10 μM, 45 min) or semicarbazide (1 mM, 45 min) and thereafter 2-deoxyglucose uptake was determined during 5 min.

[5] = test system: isolated rat adipocytes; test: Glucose transport (2-deoxyglucose uptake) in isolated rat adipocytes; type: cell-based; conditions: for stimulation of glucose transport in the presence of semicarbazide: 1 mM semicarbazide; for stimulation of glucose transport in the presence of semicarbazide / stimulation of glucose transport (2-DG uptake): dihydrate; for stimulation of glucose transport (2-DG uptake): 45 min incubation
Protocol: In order to determine whether salts formed by vanadate and benzylamine could produce an insulin mimetic effect, the effect of increasing concentrations of hexaquis(benzylammonium) decavanadate on glucose transport activity in isolated rat adipocytes was tested. […] In similar assays, the activity of hexaquis(benzylammonium) decavanadate, pentaquis(benzylammonium) decavanadate and tetraquis(benzylammonium) decavanadate on glucose transport activity in isolated rat adipocytes were analyzed.
To determine the possible insulin mimetic effect of certain vanadium arylalkylamines, the capacity of these compounds to enhance glucose transport in isolated rat adipocytes was tested. Adipose cells from Wistar rats were incubated for 45 minutes in basal conditions (Basal) or in the presence of 100 nM insulin (Ins), and different concentrations of. hexaquis(benzylammonium) decavanadate (B6V10) in the absence or in the presence of 1 mM semicarbazide (SCZ). Subsequently, 2-DG transport was measured over a 5 min. interval.
The effects of the three tested compounds (B6V10, B5V10 and B4V10) were compared. Adipose cells from Wistar rats were incubated for 45 minutes in basal conditions (Basal) or in the presence of 100 nM insulin (Ins), and different concentrations of. decavanadate (V10), hexaquis(benzylammonium) decavanadate (B6V10), pentaquis(benzylammonium) decavanadate (B5V10) or tetraquis(benzylammonium) decavanadate (B4V10) in the absence or in the presence of 1 mM semicarbazide (SCZ). 2-DG transport was measured over 5 min. intervals. […]
as §3

[6] = test system: mice made glucose intolerant by a high fat diet; test: Glucose tolerance and plasma insulin in high-fat fed mice, acute administration; type: in vivo, mouse; conditions: dihydrate
Protocol: Male Wistar rats weighting 180-220 g were purchased from Harlan (Interfauna Ibèrica S.A., Spain). Diabetes was induced by a single intraperitoneal injection of a freshly prepared solution of streptozotocin (in some studies the dose was 45 mg/kg body weight and in some others 100 mg/kg body weight dissolved in 50 mM citrate buffer, pH 4.5). Only diabetic animals with glycemia above 300 mg/dl were used. The animals were housed in animal quarters at 22° C., with a 12 h light/12 h dark cycle and were fed ad libitum. All procedures used were approved by the animal ethical committee of the University of Barcelona, Spain. […]
as §2
Insulin and glucose responses during the glucose tolerance test were calculated as the incremental plasma values integrated over a period of 120 min after injection of glucose. […] Data distribution was analyzed by the Kolmogorov-Smirnov test. […]

[7] = isolated rat adipocytes, listed as hexaquis(benzylammonium) decavanadate
[8] = isolated rat adipocytes, FIG. 1

hexaquis(benzylammonium) decavanadate (V) dihydrate [Entry B6V10]
tyrosine phosphorylation of insulin receptors [1]: undetectable | adipocyte lipolysis [2]: inhibited adipocyte lipolysis | plasma concentrations of free fatty acids, triglycerides and cholesterol [3]: normalized the plasma concentrations of free fatty acids, triglycerides and cholesterol | protein kinase B phosphorylation ([4]; 25 μM, rat adipocytes): rapidly stimulated protein kinase B | time at which protein kinase B phosphorylation was detectable ([4]; 25 μM, rat adipocytes): ≤ 2.5 min | protein kinase B phosphorylation in the presence of semicarbazide ([4]; B6V10 25 μM, semicarbazide 1 mM, 45 min): blocked by semicarbazide | stimulation of glucose transport at 25 μM compared with the combination of benzylamine and vanadate ([5]; 25 μM vs 100 μM benzylamine and 100 μM vanadate, rat adipocytes): greater stimulation of glucose transport than the combination of 100 μM benzylamine and 100 μM vanadate | stimulation of glucose transport in the presence of semicarbazide ([5]; isolated rat adipocytes): completely blocked by semicarbazide; also recorded: blocked in the presence of semicarbazide | stimulation of glucose transport in the presence of semicarbazide [5, 7]: completely blocked by semicarbazide; also recorded: this effect was inhibited | stimulation of glucose transport (2-DG uptake) ([5]; isolated rat adipocytes): stimulated glucose transport in rat adipocytes in a concentration-dependent manner | stimulation of glucose transport (2-DG uptake) [5, 7]: pronounced stimulation on glucose transport | concentration from which stimulation of glucose transport was perceptible [5, 8]: ≥ 0.5 µM | concentration of maximal effect on glucose transport [5, 8]: 2.5 µM | pEC50 ([5]; isolated rat adipocytes, FIG. 1, read-out: concentration of semi-maximal effect on glucose transport): < 6.00 | maximum effect on glucose transport compared with benzylamine and vanadate in combination ([5]; isolated rat adipocytes, combination 100 μM sodium vanadate and 100 μM benzylamine (FIG. 1)): greater than that produced by the presence of benzylamine and vanadate in combination | maximal effect on glucose transport as % of the maximal stimulation caused by insulin ([5]; rat adipocytes, 100 nM insulin): 85% | glucose tolerance and plasma insulin levels [6]: ameliorated the pattern of plasma insulin levels; also recorded: amelioration of glucose tolerance and improved plasma insulin levels
